# “And” between values parts separate entries of the source, which are not always exact repeats. Equal values may be shown once. Toxic doses and inconclusive results are not listed.
# Tested on: CD2F1 mice, L1210 leukemia ip, survival T/C
# Experiment: NCI In Vivo Anticancer Drug Screen. Data for tumor model L1210 Leukemia (intraperitoneal) in CD2F1 (CDF1) mice
# Conditions: higher = longer survival
# In short: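 Compound-dosed mice with transplantable tumor versus matched vehicle controls; endpoint ratio T/C reported.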
smiles,measurement,setting,value
Nc1nc(=S)c2[nH]cnc2[nH]1,T/C,"endpoint: mean survival time, dose: 0.13 mg/kg/injection, schedule: Q01DX009 (ip), vehicle: other",110 % of control
same,T/C,"endpoint: mean survival time, dose: 0.25 mg/kg/injection, schedule: Q01DX009 (ip), vehicle: alkali diluted with saline",114 % of control and 120 % of control
same,T/C,"endpoint: mean survival time, dose: 0.25 mg/kg/injection, schedule: Q01DX009 (ip), vehicle: other",121 % of control
same,T/C,"endpoint: mean survival time, dose: 0.38 mg/kg/injection, schedule: Q01DX009 (ip), vehicle: acid diluted with saline",116 % of control and 123 % of control
same,T/C,"endpoint: mean survival time, dose: 0.5 mg/kg/injection, schedule: Q01DX005 (ip), vehicle: water",116 % of control
same,T/C,"endpoint: mean survival time, dose: 0.5 mg/kg/injection, schedule: Q01DX009 (ip), vehicle: alkali diluted with saline",124 % of control
same,T/C,"endpoint: mean survival time, dose: 0.5 mg/kg/injection, schedule: Q01DX009 (ip), vehicle: other",121 % of control
same,T/C,"endpoint: mean survival time, dose: 0.66 mg/kg/injection, schedule: Q01DX009 (ip), vehicle: clinical formulation",150 % of control
same,T/C,"endpoint: mean survival time, dose: 0.75 mg/kg/injection, schedule: Q01DX009 (ip), vehicle: acid diluted with saline",164 % of control
same,T/C,"endpoint: mean survival time, dose: 1.0 mg/kg/injection, schedule: Q01DX005 (ip), vehicle: alkali diluted with saline",163 % of control
same,T/C,"endpoint: mean survival time, dose: 1.0 mg/kg/injection, schedule: Q01DX005 (ip), vehicle: water",120 % of control
same,T/C,"endpoint: mean survival time, dose: 1.0 mg/kg/injection, schedule: Q01DX007 (ip), vehicle: saline",151 % of control
same,T/C,"endpoint: mean survival time, dose: 1.0 mg/kg/injection, schedule: Q03DX003 (ip), vehicle: saline",152 % of control
same,T/C,"endpoint: mean survival time, dose: 1.0 mg/kg/injection, schedule: Q04DX003 (ip), vehicle: saline",154 % of control
same,T/C,"endpoint: mean survival time, dose: 1.12 mg/kg/injection, schedule: Q04DX003 (ip), vehicle: acid diluted with saline",116 % of control and 118 % of control
same,T/C,"endpoint: mean survival time, dose: 1.2 mg/kg/injection, schedule: Q01DX009 (ip), vehicle: alkali diluted with saline",152 % of control and 153 % of control
same,T/C,"endpoint: mean survival time, dose: 1.47 mg/kg/injection, schedule: Q01DX009 (ip), vehicle: clinical formulation",150 % of control
same,T/C,"endpoint: mean survival time, dose: 1.47 mg/kg/injection, schedule: Q01DX009 (ip), vehicle: saline",158 % of control
same,T/C,"endpoint: mean survival time, dose: 1.5 mg/kg/injection, schedule: Q01DX009 (ip), vehicle: acid diluted with saline",164 % of control and 171 % of control and 180 % of control
same,T/C,"endpoint: mean survival time, dose: 1.56 mg/kg/injection, schedule: Q01DX005 (ip), vehicle: alkali diluted with saline",159 % of control
same,T/C,"endpoint: mean survival time, dose: 1.8 mg/kg/injection, schedule: Q01DX009 (ip), vehicle: alkali diluted with saline",151 % of control
same,T/C,"endpoint: mean survival time, dose: 2.0 mg/kg/injection, schedule: Q01DX005 (ip), vehicle: alkali diluted with saline",158 % of control
same,T/C,"endpoint: mean survival time, dose: 2.0 mg/kg/injection, schedule: Q03DX003 (ip), vehicle: saline",160 % of control
same,T/C,"endpoint: mean survival time, dose: 2.0 mg/kg/injection, schedule: Q04DX003 (ip), vehicle: alkali diluted with saline",122 % of control
same,T/C,"endpoint: mean survival time, dose: 2.0 mg/kg/injection, schedule: Q04DX003 (ip), vehicle: saline",160 % of control
same,T/C,"endpoint: mean survival time, dose: 2.2 mg/kg/injection, schedule: Q01DX009 (ip), vehicle: clinical formulation",155 % of control
same,T/C,"endpoint: mean survival time, dose: 3.0 mg/kg/injection, schedule: Q01DX009 (ip), vehicle: alkali diluted with saline",536 % of control
same,T/C,"endpoint: mean survival time, dose: 3.12 mg/kg/injection, schedule: Q01DX005 (ip), vehicle: alkali diluted with saline",188 % of control
same,T/C,"endpoint: mean survival time, dose: 4.0 mg/kg/injection, schedule: Q01DX005 (ip), vehicle: alkali diluted with saline",150 % of control
same,T/C,"endpoint: mean survival time, dose: 4.0 mg/kg/injection, schedule: Q01DX007 (ip), vehicle: saline",152 % of control
same,T/C,"endpoint: mean survival time, dose: 4.0 mg/kg/injection, schedule: Q01DX009 (ip), vehicle: acid diluted with saline",122 % of control
same,T/C,"endpoint: mean survival time, dose: 4.0 mg/kg/injection, schedule: Q03DX003 (ip), vehicle: saline",156 % of control
same,T/C,"endpoint: mean survival time, dose: 4.0 mg/kg/injection, schedule: Q04DX003 (ip), vehicle: saline",176 % of control
same,T/C,"endpoint: mean survival time, dose: 4.5 mg/kg/injection, schedule: Q04DX003 (ip), vehicle: acid diluted with saline",161 % of control
same,T/C,"endpoint: mean survival time, dose: 6.25 mg/kg/injection, schedule: Q01DX005 (ip), vehicle: alkali diluted with saline",159 % of control
same,T/C,"endpoint: mean survival time, dose: 9.0 mg/kg/injection, schedule: Q04DX003 (ip), vehicle: acid diluted with saline",166 % of control
same,T/C,"endpoint: mean survival time, dose: 12.5 mg/kg/injection, schedule: Q01DX005 (ip), vehicle: alkali diluted with saline",119 % of control
same,T/C,"endpoint: mean survival time, dose: 18.0 mg/kg/injection, schedule: Q04DX003 (ip), vehicle: acid diluted with saline",176 % of control
same,T/C,"endpoint: mean survival time, dose: 20.0 mg/kg/injection, schedule: Q04DX003 (ip), vehicle: alkali diluted with saline",152 % of control
same,T/C,"endpoint: mean survival time, dose: 23.0 mg/kg/injection, schedule: Q01DX001 (ip), vehicle: alkali diluted with saline",158 % of control
same,T/C,"endpoint: mean survival time, dose: 25.0 mg/kg/injection, schedule: Q01DX005 (ip), vehicle: alkali diluted with saline",96 % of control
same,T/C,"endpoint: mean survival time, dose: 31.0 mg/kg/injection, schedule: Q01DX001 (ip), vehicle: alkali diluted with saline",161 % of control
same,T/C,"endpoint: mean survival time, dose: 47.0 mg/kg/injection, schedule: Q01DX001 (ip), vehicle: alkali diluted with saline",167 % of control
same,T/C,"endpoint: median survival time, dose: 0.86 mg/kg/injection, schedule: Q01DX009 (ip), vehicle: acid diluted with saline",152 % of control and 154 % of control
same,T/C,"endpoint: median survival time, dose: 1.44 mg/kg/injection, schedule: Q01DX009 (ip), vehicle: acid diluted with saline",160 % of control
same,T/C,"endpoint: median survival time, dose: 2.4 mg/kg/injection, schedule: Q01DX009 (ip), vehicle: acid diluted with saline",158 % of control
same,T/C,"endpoint: median survival time, dose: 2.7 mg/kg/injection, schedule: Q04DX003 (ip), vehicle: alkali diluted with saline",159 % of control
same,T/C,"endpoint: median survival time, dose: 4.0 mg/kg/injection, schedule: Q01DX009 (ip), vehicle: acid diluted with saline",151 % of control and 152 % of control
same,T/C,"endpoint: median survival time, dose: 4.5 mg/kg/injection, schedule: Q04DX003 (ip), vehicle: alkali diluted with saline",172 % of control
same,T/C,"endpoint: median survival time, dose: 7.5 mg/kg/injection, schedule: Q04DX003 (ip), vehicle: alkali diluted with saline",191 % of control
same,T/C,"endpoint: median survival time, dose: 12.5 mg/kg/injection, schedule: Q04DX003 (ip), vehicle: alkali diluted with saline",187 % of control
same,T/C,"endpoint: median survival time, dose: 20.0 mg/kg/injection, schedule: Q04DX003 (ip), vehicle: alkali diluted with saline",151 % of control
same,T/C,"endpoint: median survival time, dose: 20.83 mg/kg/injection, schedule: Q04DX003 (ip), vehicle: alkali diluted with saline",166 % of control
same,T/C,"endpoint: median survival time, dose: 40.0 mg/kg/injection, schedule: Q01DX001 (ip), vehicle: alkali diluted with saline",150 % of control and 161 % of control
same,T/C,"endpoint: median survival time, dose: 60.0 mg/kg/injection, schedule: Q01DX001 (ip), vehicle: alkali diluted with saline",183 % of control

# From PubChem BioAssay AID256 (DTP/NCI, 2004)
